Patent US10538498B2, “1,3,4-oxadiazole sulfonamide derivative compounds as histone deacetylase 6 inhibitor, and the pharmaceutical composition comprising the same” (Chong Kun Dang Pharmaceutical Corp., priority 2015, dated 2020)

Biological target: T1, human recombinant HDAC6 (Homo sapiens, UniProt Q9UBN7)
T1 construct: purchased Calbiochem 382180
T1 sequence (Q9UBN7 1-1215): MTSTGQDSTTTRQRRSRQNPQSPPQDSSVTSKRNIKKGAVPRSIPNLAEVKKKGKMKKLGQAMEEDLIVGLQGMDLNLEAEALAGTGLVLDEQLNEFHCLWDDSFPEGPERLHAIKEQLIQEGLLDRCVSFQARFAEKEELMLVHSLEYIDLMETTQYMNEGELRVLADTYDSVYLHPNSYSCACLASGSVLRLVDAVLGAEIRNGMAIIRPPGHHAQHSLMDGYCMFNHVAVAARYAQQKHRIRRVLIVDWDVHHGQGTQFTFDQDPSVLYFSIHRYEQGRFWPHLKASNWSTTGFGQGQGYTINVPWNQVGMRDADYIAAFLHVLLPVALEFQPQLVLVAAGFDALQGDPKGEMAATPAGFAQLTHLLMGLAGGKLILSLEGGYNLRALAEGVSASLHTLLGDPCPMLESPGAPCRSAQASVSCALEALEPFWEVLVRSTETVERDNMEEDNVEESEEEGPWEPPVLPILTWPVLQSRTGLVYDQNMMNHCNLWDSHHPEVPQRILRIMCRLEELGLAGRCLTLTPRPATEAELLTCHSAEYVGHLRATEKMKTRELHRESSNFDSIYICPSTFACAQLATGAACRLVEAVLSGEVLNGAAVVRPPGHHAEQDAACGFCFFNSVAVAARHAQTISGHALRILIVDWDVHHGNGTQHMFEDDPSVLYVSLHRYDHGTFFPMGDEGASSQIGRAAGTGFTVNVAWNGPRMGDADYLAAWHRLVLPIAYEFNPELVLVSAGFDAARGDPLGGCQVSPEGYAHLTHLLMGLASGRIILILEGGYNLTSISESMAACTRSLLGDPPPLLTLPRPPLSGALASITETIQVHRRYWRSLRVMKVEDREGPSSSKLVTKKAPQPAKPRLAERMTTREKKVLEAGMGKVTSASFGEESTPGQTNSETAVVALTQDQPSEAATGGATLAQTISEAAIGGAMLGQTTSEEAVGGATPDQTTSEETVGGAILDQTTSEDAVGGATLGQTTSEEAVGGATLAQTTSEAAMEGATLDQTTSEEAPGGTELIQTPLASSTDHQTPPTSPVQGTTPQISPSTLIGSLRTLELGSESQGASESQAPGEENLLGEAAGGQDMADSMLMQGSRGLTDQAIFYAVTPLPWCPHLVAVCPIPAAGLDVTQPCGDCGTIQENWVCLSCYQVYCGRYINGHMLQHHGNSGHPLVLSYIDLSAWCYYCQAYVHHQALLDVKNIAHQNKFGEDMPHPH
Assay: HDAC6 enzyme activity inhibition assay (HDAC Fluorimetric Drug Discovery Kit)
Format: biochemical
Details: for HDAC6 selectivity (fold): HDAC1 vs HDAC6; for IC50: same protocol as the HDAC1 enzyme activity test
Procedure, shortened: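 First, compound in 5-fold dilution steps is combined with 0.3 μg enzyme and 10 μM Fluor de Lys-SIRT1 substrate. After 60 min at 30° C, developer is added for 30 min. Fluorescence at Ex 360/Em 460 then gives IC50 values.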

HDAC6 selectivity (fold) | IC50 | SMILES
2252 fold | 44.4 nM | O=S(=O)(CCN1CC[C@H](O)C1)N(Cc1ccc(-c2nnc(C(F)F)o2)cc1)c1ccccc1 [Compound 11800, (S)—N-(4-(5-(difluoromethyl)-1,3,4-oxadiazol-2-yl)benzyl)-2-(3-hydroxypyrrolidin-1-yl)-N-phenylethane-1-sulfonamide]
2941 fold | 34 nM | O=S(=O)(CCN1CC[C@@H](O)C1)N(Cc1ccc(-c2nnc(C(F)F)o2)cc1)c1ccccc1 [Compound 11801, (R)—N-(4-(5-(difluoromethyl)-1,3,4-oxadiazol-2-yl)benzyl)-2-(3-hydroxypyrrolidin-1-yl)-N-phenylethane-1-sulfonamide]
2849 fold | 35.1 nM | O=S(=O)(CCN1CCC[C@H]1CO)N(Cc1ccc(-c2nnc(C(F)F)o2)cc1)c1ccccc1 [Compound 11802, (S)—N-(4-(5-(difluoromethyl)-1,3,4-oxadiazol-2-yl)benzyl)-2-(2-(hydroxymethyl)pyrrolidin-1-yl)-N-phenylethane-1-sulfonamide]
4587 fold | 21.8 nM | O=S(=O)(CCN1CCC[C@@H]1CO)N(Cc1ccc(-c2nnc(C(F)F)o2)cc1)c1ccccc1 [Compound 11803, (R)—N-(4-(5-(difluoromethyl)-1,3,4-oxadiazol-2-yl)benzyl)-2-(2-(hydroxymethyl)pyrrolidin-1-yl)-N-phenylethane-1-sulfonamide]
3115 fold | 32.1 nM | O=S(=O)(CCN1CC[C@H](CO)C1)N(Cc1ccc(-c2nnc(C(F)F)o2)cc1)c1ccccc1 [Compound 11804, (S)—N-(4-(5-(difluoromethyl)-1,3,4-oxadiazol-2-yl)benzyl)-2-(3-(hydroxymethyl)pyrrolidin-1-yl)-N-phenylethane-1-sulfonamide]
3021 fold | 33.1 nM | O=S(=O)(CCN1CC[C@@H](CO)C1)N(Cc1ccc(-c2nnc(C(F)F)o2)cc1)c1ccccc1 [Compound 11805, (R)—N-(4-(5-(difluoromethyl)-1,3,4-oxadiazol-2-yl)benzyl)-2-(3-(hydroxymethyl)pyrrolidin-1-yl)-N-phenylethane-1-sulfonamide]
4000 fold | 25 nM | Cc1nccn1CCS(=O)(=O)N(Cc1ccc(-c2nnc(C(F)F)o2)cc1)c1ccccc1 [Compound 11806, N-(4-(5-(difluoromethyl)-1,3,4-oxadiazol-2-yl)benzyl)-2-(2-methyl-1H-imidazol-1-yl)-N-phenylethane-1-sulfonamide]
1584 fold | 63.1 nM | Cc1cncn1CCS(=O)(=O)N(Cc1ccc(-c2nnc(C(F)F)o2)cc1)c1ccccc1 [Compound 11807, N-(4-(5-(difluoromethyl)-1,3,4-oxadiazol-2-yl)benzyl)-2-(5-methyl-1H-imidazol-1-yl)-N-phenylethane-1-sulfonamide]
2881 fold | 34.7 nM | O=S(=O)(CCn1cnc(CO)c1)N(Cc1ccc(-c2nnc(C(F)F)o2)cc1)c1ccccc1 [Compound 11808, N-(4-(5-(difluoromethyl)-1,3,4-oxadiazol-2-yl)benzyl)-2-(4-(hydroxymethyl)-1H-imidazol-1-yl)-N-phenylethane-1-sulfonamide]
3222 fold | 30.1 nM | O=S(=O)(CCn1cncn1)N(Cc1ccc(-c2nnc(C(F)F)o2)cc1)c1ccccc1 [Compound 11809, N-(4-(5-(difluoromethyl)-1,3,4-oxadiazol-2-yl)benzyl)-N-phenyl-2-(1H-1,2,4-triazol-1-yl)ethane-1-sulfonamide]
2793 fold | 35.8 nM | O=S(=O)(CCN1CCC(CO)CC1)N(Cc1ccc(-c2nnc(C(F)F)o2)cc1)c1ccccc1 [Compound 11810, N-(4-(5-(difluoromethyl)-1,3,4-oxadiazol-2-yl)benzyl)-2-(4-(hydroxymethyl)piperidin-1-yl)-N-phenylethane-1-sulfonamide]
2358 fold | 42.4 nM | O=S(=O)(CCN1CCCC(CO)C1)N(Cc1ccc(-c2nnc(C(F)F)o2)cc1)c1ccccc1 (centres unmarked) [Compound 11811, N-(4-(5-(difluoromethyl)-1,3,4-oxadiazol-2-yl)benzyl)-2-(3-(hydroxymethyl)piperidin-1-yl)-N-phenylethane-1-sulfonamide]
3039 fold | 32.9 nM | NC(=O)[C@@H]1CCCN1CCS(=O)(=O)N(Cc1ccc(-c2nnc(C(F)F)o2)cc1)c1ccccc1 [Compound 11812, (S)-1-(2-(N-(4-(5-(difluoromethyl)-1,3,4-oxadiazol-2-yl)benzyl)-N-phenylsulfamoyl)ethyl)pyrrolidine-2-carboxamide]
2932 fold | 34.1 nM | NC(=O)[C@H]1CCCN1CCS(=O)(=O)N(Cc1ccc(-c2nnc(C(F)F)o2)cc1)c1ccccc1 [Compound 11813, (R)-1-(2-(N-(4-(5-(difluoromethyl)-1,3,4-oxadiazol-2-yl)benzyl)-N-phenylsulfamoyl)ethyl)pyrrolidine-2-carboxamide]
88 fold | 1130 nM | CC(C)(C)OC(=O)N1CC2(CCN(CCS(=O)(=O)N(Cc3ccc(-c4nnc(C(F)F)o4)cc3)c3ccccc3)CC2)C1 [Compound 11814, tert-butyl 7-(2-(N-(4-(5-(difluoromethyl)-1,3,4-oxadiazol-2-yl)benzyl)-N-phenylsulfamoyl)ethyl)-2,7-diazaspiro[3.5]nonane-2-carboxylate]
1326 fold | 75.4 nM | O=S(=O)(CCN1CCC(F)(F)C1)N(Cc1ccc(-c2nnc(C(F)F)o2)cc1)c1ccccc1 [Compound 11815, N-(4-(5-(difluoromethyl)-1,3,4-oxadiazol-2-yl)benzyl)-2-(3,3-difluoropyrrolidin-1-yl)-N-phenylethane-1-sulfonamide]
2695 fold | 37.1 nM | O=S(=O)(CCn1ccnc1)N(Cc1ccc(-c2nnc(C(F)F)o2)cc1)c1ccccc1 [Compound 11816, N-(4-(5-(difluoromethyl)-1,3,4-oxadiazol-2-yl)benzyl)-2-(1H-imidazol-1-yl)-N-phenylethane-1-sulfonamide]
1718 fold | 58.2 nM | O=S(=O)(CCN1CCC[C@H](O)C1)N(Cc1ccc(-c2nnc(C(F)F)o2)cc1)c1ccccc1 [Compound 11817, (S)—N-(4-(5-(difluoromethyl)-1,3,4-oxadiazol-2-yl)benzyl)-2-(3-hydroxypiperidin-1-yl)-N-phenylethane-1-sulfonamide]
1647 fold | 60.7 nM | N#CC1CCN(CCS(=O)(=O)N(Cc2ccc(-c3nnc(C(F)F)o3)cc2)c2ccccc2)CC1 [Compound 11818, 2-(4-cyanopiperidin-1-yl)-N-(4-(5-(difluoromethyl)-1,3,4-oxadiazol-2-yl)benzyl)-N-phenylethane-1-sulfonamide]
284 fold | 351 nM | O=S(=O)(CCN1CCC(c2ccc(F)cc2)CC1)N(Cc1ccc(-c2nnc(C(F)F)o2)cc1)c1ccccc1 [Compound 11819, N-(4-(5-(difluoromethyl)-1,3,4-oxadiazol-2-yl)benzyl)-2-(4-(4-fluorophenyl)piperidin-1-yl)-N-phenylethane-1-sulfonamide]
1652 fold | 60.5 nM | COC(=O)C1CN(CCS(=O)(=O)N(Cc2ccc(-c3nnc(C(F)F)o3)cc2)c2ccccc2)C1 [Compound 11820, methyl 1-(2-(N-(4-(5-(difluoromethyl)-1,3,4-oxadiazol-2-yl)benzyl)-N-phenylsulfamoyl)ethyl)azetidine-3-carboxylate]
747 fold | 134 nM | O=S(=O)(CCN1CC(F)(F)C1)N(Cc1ccc(-c2nnc(C(F)F)o2)cc1)c1ccccc1 [Compound 11821, 2-(3,3-difluoroazetidin-1-yl)-N-(4-(5-(difluoromethyl)-1,3,4-oxadiazol-2-yl)benzyl)-N-phenylethane-1-sulfonamide]
